Entries after “also recorded” stand apart in the source; their conditions may differ.
Tests used:
Type in all cases: in vivo
[1] = system: Acyrthosiphon pisum aphids; experiment: Aphid developmental stage monitoring
Procedure: (§1) In addition, the developmental stage (1st, 2nd, 3rd, 4th, 5th instar) was determined daily throughout the experiment. Once an aphid reached the 4th instar stage, they were given their own artificial feeding system in a deep petri dish so that fecundity could be monitored once they reached adulthood.
(§2) Each treatment group received approximately the same number of individuals from each of the collection plant. For each treatment, 20 aphids were placed onto each leaf. Aphids were monitored daily for survival and dead aphids were removed when they were discovered. In addition, the developmental stage (1st, 2nd, 3rd, 4th, 5th instar, and 5R, representing a reproducing 5th instar) was determined daily throughout the experiment. Pictures of aphids were taken throughout the experiment to evaluate size differences between treatment groups.
(Vroma vicia faba from Johnny's Selected Seeds) in a climate-controlled incubator (16 h light/8 h dark photoperiod; 60±5% RH; 25±2° C.). Prior to being used for aphid rearing, fava bean plants were grown in potting soil at 24° C. with 16 h of light and 8 h of darkness. To limit maternal effects or health differences between plants, 5-10 adults from different plants were distributed among 10 two-week-old plants, and allowed to multiply to high density for 5-7 days. […] Aphids were monitored daily for survival and dead aphids were removed from the deep petri dish when they were discovered. In addition, the developmental stage (1st, 2nd, 3rd, 4th, 5th and 5R (5th that has reproduced) instar) was determined daily throughout the experiment.
In addition, the developmental stage (1st, 2nd, 3rd, 4th, 5th, and 5R (5th that has reproduced) instar) was determined daily throughout the experiment.
In addition, the developmental stage (1st, 2nd, 3rd, 4th, 5th, and 5R (5th instar aphids that are reproducing) instar) was determined daily throughout the experiment.
In addition, the developmental stage (1st, 2nd, 3rd, 4th, and 5th instar) was determined daily throughout the experiment.
as §1, with “5th, and 5R (5th that has reproduced)” for “5th”
For each treatment, 30 aphids were placed onto each leaf in triplicate. […] Aphids were monitored daily for survival and dead aphids were removed from the deep petri dish when they were discovered. In addition, the developmental stage (1st, 2nd, 3rd, 4th, 5th, and 5R (5th instar aphids that are reproducing) instar) was determined daily throughout the experiment. […]

[2] = system: Acyrthosiphon pisum aphids; experiment: Aphid survival monitoring
Description: For each treatment, 33 aphids were placed onto each leaf. Artificial diet feeding systems were changed every 2-3 days throughout the experiment. Aphids were monitored daily for survival and dead aphids were removed from the deep petri dish housing the artificial feeding system when they were discovered.
as §2
(Vroma vicia faba from Johnny's Selected Seeds) in a climate-controlled incubator (16 h light/8 h dark photoperiod; 60±5% RH; 25±2° C.). Prior to being used for aphid rearing, fava bean plants were grown in potting soil at 24° C. with 16 h of light and 8 h of darkness. To limit maternal effects or health differences between plants, 5-10 adults from different plants were distributed among 10 two-week-old plants, and allowed to multiply to high density for 5-7 days. For experiments, first and second instar aphids were collected from healthy plants and divided into 2 different treatment groups: 1) negative control (leaf injected with water plus blue food coloring) and 2) leaf injected with 50 μg/ml rifampicin in water plus blue food coloring. Each treatment group received approximately the same number of individuals from each of the collection plants. For treatment, rifampicin stock solution (25 mg/ml in 100% methanol) was diluted to 50 μg/ml in water plus blue food coloring. The solution was then placed into a 1.5 ml Eppendorf tube with a fava bean stem perfused with the solutions and the opening of the tube was closed using parafilm. This feeding system was then placed into a deep petri dish (Fisher Scientific, Cat# FB0875711) and aphids were applied to the leaves of the plant. For each treatment, 74-81 aphids were placed onto each leaf. The feeding systems were changed every 2-3 days throughout the experiment. Aphids were monitored daily for survival and dead aphids were removed from the deep petri dish when they were discovered. In addition, the developmental stage (1st, 2nd, 3rd, 4th, 5th and 5R (5th that has reproduced) instar) was determined daily throughout the experiment.
For each treatment, 49-50 aphids were placed onto each leaf. The feeding systems were changed every 2-3 days throughout the experiment. Aphids were monitored daily for survival and dead aphids were removed from the deep petri dish when they were discovered.
For each treatment, 76-80 aphids were placed onto each leaf. The feeding systems were changed every 2-3 days throughout the experiment. Aphids were monitored daily for survival and dead aphids were removed from the deep petri dish when they were discovered.
For each treatment, 50-51 aphids were placed onto each leaf. The feeding systems were changed every 2-3 days throughout the experiment. Aphids were monitored daily for survival and dead aphids were removed from the deep petri dish when they were discovered.
For each treatment, 56-59 aphids were placed onto each leaf. The feeding systems were changed every 2-3 days throughout the experiment. Aphids were monitored daily for survival and dead aphids were removed from the deep petri dish when they were discovered.
For each treatment, 57-59 aphids were placed onto each leaf. The feeding systems were changed every 2-3 days throughout the experiment. Aphids were monitored daily for survival and dead aphids were removed from the deep petri dish when they were discovered.
For each treatment, 15-87 aphids were placed onto each leaf. Artificial diet feeding systems were changed every 2-3 days throughout the experiment.

[3] = system: Acyrthosiphon pisum aphids; experiment: Aphid fecundity (offspring production); conditions: 10 or 100 uM pantothenol
Procedure: as §1
For adult aphids, new nymphs were counted daily and then discarded. At the end of the experiments, fecundity was determined as the mean number of offspring produced daily once the aphid reached adulthood. Pictures of aphids were taken throughout the experiment to evaluate size differences between treatment groups.
as §1, with “5th, and 5R (5th that has reproduced)” for “5th”
For adult aphids, new nymphs were counted daily and then discarded. At the end of the experiments, fecundity was measured in two ways: 1) the mean day at which the first offspring for the treatment group was determined and 2) the mean number of offspring produced daily once the aphid reached adulthood. […]
In addition, the developmental stage (1st, 2nd, 3rd, 4th, 5th instar) was determined daily throughout the experiment. […]

SMILES: CC(C)(CO)[C@@H](O)C(=O)NCCCO [pantothenol]
- Aphid development ([1]; eNASCO 1st and 2nd instar, 10 or 100 uM pantothenol in artificial diet without essential amino acids, through plants): delayed aphid development; also recorded: Development was delayed
- Aphid development ([1]; eNASCO first instar, leaf coating, 100 μl of 10 uM pantothenol in 0.025% Silwet L-77): did not affect aphid development; also recorded: matured at similar rates up to two days post-treatment
- Aphid survival / mortality ([2]; 10 or 100 uM pantothenol, through plants): increased aphid mortality; also recorded: negatively affected aphid fitness
- Aphid survival rate ([2]; leaf coating, 10 uM pantothenol): resulted in aphid death; also recorded: lower survival rates than aphids placed on coated leaves with the control solution
- Aphid reproduction [3]: loss of reproduction
